From ChEMBL document CHEMBL3621077, “Synthesis of hybrid anticancer agents based on kinase and histone deacetylase inhibitors” (Medchemcomm, 2014)

Tests used:
[1] = biological target: Vascular endothelial growth factor receptor 1 (Homo sapiens, UniProt P17948); assay: Inhibition of VEGFR1 (unknown origin); details: read-out: IC50
[2] = biological target: Vascular endothelial growth factor receptor 2 (Homo sapiens, UniProt P35968); assay: Inhibition of VEGFR2 (unknown origin); details: read-out: IC50
[3] = biological target: Platelet-derived growth factor receptor alpha (Homo sapiens, UniProt P16234); assay: Inhibition of PDGFRa (unknown origin); details: read-out: IC50
Histone deacetylase 1 = Histone deacetylase 1 (Homo sapiens, UniProt Q13547); assay: Inhibition of HDAC1 (unknown origin)
Histone deacetylase 4 = Histone deacetylase 4 (Homo sapiens, UniProt P56524); assay: Inhibition of HDAC4 (unknown origin)
[4] = biological target: T1, Protein deacetylase HDAC6 (Homo sapiens, UniProt Q9UBN7); assay: Inhibition of HDAC6 (unknown origin); details: read-out: IC50
T1 sequence (Q9UBN7 whole entry): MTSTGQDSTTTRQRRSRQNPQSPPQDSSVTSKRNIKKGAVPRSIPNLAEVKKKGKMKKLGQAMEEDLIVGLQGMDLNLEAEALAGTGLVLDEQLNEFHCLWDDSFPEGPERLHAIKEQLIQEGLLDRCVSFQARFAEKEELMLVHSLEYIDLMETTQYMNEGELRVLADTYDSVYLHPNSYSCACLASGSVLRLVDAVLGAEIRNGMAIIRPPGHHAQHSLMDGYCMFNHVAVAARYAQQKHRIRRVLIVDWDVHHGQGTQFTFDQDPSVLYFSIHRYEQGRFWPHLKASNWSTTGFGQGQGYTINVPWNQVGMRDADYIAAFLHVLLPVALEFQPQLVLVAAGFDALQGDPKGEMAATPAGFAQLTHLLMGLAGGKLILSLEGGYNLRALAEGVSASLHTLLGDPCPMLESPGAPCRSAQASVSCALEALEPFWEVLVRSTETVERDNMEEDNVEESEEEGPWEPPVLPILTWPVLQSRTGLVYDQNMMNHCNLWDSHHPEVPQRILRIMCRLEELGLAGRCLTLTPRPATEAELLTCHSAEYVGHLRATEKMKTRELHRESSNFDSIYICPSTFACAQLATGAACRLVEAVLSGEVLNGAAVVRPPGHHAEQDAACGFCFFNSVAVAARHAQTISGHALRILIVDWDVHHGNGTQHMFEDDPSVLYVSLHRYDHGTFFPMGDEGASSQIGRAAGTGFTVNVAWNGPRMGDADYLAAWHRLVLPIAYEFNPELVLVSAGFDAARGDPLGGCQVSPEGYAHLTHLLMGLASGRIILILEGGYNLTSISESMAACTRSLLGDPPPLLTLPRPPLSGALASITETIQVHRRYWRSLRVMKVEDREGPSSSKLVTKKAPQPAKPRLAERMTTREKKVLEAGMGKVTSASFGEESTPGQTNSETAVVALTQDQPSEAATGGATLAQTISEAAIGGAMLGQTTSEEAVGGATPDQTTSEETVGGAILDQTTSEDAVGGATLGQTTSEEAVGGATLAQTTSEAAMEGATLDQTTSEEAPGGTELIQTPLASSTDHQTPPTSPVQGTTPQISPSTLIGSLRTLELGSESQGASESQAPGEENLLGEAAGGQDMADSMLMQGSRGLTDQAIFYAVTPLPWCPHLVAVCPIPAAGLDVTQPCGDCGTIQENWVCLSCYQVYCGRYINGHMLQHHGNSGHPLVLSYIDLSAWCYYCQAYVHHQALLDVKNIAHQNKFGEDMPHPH

Histone deacetylase 9 = Histone deacetylase 9 (Homo sapiens, UniProt Q9UKV0); assay: Inhibition of HDAC9 (unknown origin)
MDA-MB-231 [5] = assay: Cytotoxicity against human MDA-MB-231 cells assessed as reduction of cell viability after 72 hrs by MTT assay; type: functional, cell-based; details: MDA-MB-231, 72 h
K562 = assay: Cytotoxicity against human K562 cells; type: functional
MOLT-4 = assay: Cytotoxicity against human MOLT4 cells; type: functional
RPMI-8226 = assay: Cytotoxicity against human RPMI8226 cells; type: functional
A549 = assay: Cytotoxicity against human A549 cells; type: functional
HOP-62 = assay: Cytotoxicity against human HOP62 cells; type: functional
NCI-H226 = assay: Cytotoxicity against human NCI-H226 cells; type: functional
NCI-H23 = assay: Cytotoxicity against human NCI-H23 cells; type: functional
NCI-H322M = assay: Cytotoxicity against human NCI-H322M cells; type: functional
NCI-H460 = assay: Cytotoxicity against human NCI-H460 cells; type: functional
NCI-H522 = assay: Cytotoxicity against human NCI-H522 cells; type: functional
HCC 2998 = assay: Cytotoxicity against human HCC2998 cells; type: functional
HT-29 = assay: Cytotoxicity against human HT-29 cells; type: functional
KM12 = assay: Cytotoxicity against human KM12 cells; type: functional
SW-620 = assay: Cytotoxicity against human SW620 cells; type: functional
SF-295 = assay: Cytotoxicity against human SF295 cells; type: functional
SF-539 = assay: Cytotoxicity against human SF539 cells; type: functional
SNB-75 = assay: Cytotoxicity against human SNB75 cells; type: functional
U-251 = assay: Cytotoxicity against human U251 cells; type: functional
Malme-3M = assay: Cytotoxicity against human MALME-3M cells; type: functional
SK-MEL-28 = assay: Cytotoxicity against human SK-MEL-28 cells; type: functional
IGROV-1 = assay: Cytotoxicity against human IGROV1 cells; type: functional
[6] = Cytotoxicity against human NCI-ADR-RES cells; type: functional
SK-OV-3 = assay: Cytotoxicity against human SKOV3 cells; type: functional
A498 = assay: Cytotoxicity against human A498 cells; type: functional
CAKI-1 = assay: Cytotoxicity against human Caki1 cells; type: functional
RXF 393 = assay: Cytotoxicity against human RXF393 cells; type: functional
TK-10 = assay: Cytotoxicity against human TK10 cells; type: functional
PC-3 = assay: Cytotoxicity against human PC3 cells; type: functional
DU-145 = assay: Cytotoxicity against human DU145 cells; type: functional
MCF7 = assay: Cytotoxicity against human MCF7 cells; type: functional
MDA-MB-231 [7] = assay: Cytotoxicity against human MDA-MB-231 cells; type: functional
[8] = Cytotoxicity against human Hs 578T cells; type: functional

Vascular endothelial growth factor receptor 1, sequence (P17948 whole entry): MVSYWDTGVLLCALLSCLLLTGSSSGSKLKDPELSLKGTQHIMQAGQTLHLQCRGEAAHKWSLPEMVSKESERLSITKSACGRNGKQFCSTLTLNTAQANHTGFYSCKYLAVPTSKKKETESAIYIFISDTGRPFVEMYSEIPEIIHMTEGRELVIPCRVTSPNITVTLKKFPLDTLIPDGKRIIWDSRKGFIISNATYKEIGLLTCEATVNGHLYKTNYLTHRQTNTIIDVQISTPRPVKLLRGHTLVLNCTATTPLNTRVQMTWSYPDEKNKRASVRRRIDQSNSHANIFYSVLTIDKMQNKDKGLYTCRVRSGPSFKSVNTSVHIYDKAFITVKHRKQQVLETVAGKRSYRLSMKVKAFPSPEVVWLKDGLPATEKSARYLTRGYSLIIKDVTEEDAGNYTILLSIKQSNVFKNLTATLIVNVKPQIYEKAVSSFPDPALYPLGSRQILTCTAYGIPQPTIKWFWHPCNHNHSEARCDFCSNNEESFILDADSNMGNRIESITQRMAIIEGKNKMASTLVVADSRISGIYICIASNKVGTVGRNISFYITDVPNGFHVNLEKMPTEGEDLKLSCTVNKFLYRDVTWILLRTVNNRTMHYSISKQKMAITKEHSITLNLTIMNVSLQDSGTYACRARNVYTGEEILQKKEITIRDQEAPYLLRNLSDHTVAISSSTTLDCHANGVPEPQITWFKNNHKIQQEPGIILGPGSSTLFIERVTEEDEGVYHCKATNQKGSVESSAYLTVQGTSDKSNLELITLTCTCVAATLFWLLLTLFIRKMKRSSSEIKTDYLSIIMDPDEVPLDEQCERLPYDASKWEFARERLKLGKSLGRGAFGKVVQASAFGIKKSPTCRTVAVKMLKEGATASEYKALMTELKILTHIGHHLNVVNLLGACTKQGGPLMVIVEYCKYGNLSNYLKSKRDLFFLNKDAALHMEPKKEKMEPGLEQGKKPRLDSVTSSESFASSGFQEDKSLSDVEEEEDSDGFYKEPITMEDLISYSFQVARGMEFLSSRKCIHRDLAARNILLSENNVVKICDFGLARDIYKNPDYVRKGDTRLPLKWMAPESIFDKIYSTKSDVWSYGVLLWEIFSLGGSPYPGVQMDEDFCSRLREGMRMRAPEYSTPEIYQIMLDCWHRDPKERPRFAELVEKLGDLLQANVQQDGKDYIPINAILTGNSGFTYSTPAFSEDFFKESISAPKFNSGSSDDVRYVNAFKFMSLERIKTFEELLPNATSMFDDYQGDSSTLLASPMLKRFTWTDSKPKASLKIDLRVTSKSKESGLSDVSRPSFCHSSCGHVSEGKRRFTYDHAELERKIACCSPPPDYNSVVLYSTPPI
Histone deacetylase 9, sequence (Q9UKV0 whole entry): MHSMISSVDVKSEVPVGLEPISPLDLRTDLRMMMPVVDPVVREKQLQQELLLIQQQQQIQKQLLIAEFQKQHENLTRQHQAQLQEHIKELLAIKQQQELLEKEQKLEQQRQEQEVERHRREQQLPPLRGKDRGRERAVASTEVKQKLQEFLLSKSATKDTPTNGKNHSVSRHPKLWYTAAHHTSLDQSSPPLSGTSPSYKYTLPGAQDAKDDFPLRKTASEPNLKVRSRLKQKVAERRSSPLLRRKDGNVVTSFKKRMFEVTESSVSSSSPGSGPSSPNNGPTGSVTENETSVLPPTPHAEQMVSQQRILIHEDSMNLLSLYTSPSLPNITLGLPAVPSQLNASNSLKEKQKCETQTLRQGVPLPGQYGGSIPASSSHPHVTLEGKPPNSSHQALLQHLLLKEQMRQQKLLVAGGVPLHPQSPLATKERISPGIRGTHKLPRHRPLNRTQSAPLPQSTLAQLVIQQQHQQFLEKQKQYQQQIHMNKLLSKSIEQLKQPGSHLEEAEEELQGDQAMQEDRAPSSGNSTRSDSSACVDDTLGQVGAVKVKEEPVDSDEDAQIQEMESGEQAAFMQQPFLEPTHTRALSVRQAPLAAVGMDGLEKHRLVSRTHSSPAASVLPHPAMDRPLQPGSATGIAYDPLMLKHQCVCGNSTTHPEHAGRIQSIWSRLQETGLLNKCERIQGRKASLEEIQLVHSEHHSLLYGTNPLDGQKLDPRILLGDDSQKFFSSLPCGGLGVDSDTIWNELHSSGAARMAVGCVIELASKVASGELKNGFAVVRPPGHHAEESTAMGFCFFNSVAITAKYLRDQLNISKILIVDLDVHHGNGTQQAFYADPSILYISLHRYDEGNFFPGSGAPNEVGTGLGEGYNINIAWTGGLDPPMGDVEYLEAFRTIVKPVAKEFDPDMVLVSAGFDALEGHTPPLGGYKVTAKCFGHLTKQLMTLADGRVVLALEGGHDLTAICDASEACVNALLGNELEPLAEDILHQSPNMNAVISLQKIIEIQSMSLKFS
Platelet-derived growth factor receptor alpha, sequence (P16234 whole entry): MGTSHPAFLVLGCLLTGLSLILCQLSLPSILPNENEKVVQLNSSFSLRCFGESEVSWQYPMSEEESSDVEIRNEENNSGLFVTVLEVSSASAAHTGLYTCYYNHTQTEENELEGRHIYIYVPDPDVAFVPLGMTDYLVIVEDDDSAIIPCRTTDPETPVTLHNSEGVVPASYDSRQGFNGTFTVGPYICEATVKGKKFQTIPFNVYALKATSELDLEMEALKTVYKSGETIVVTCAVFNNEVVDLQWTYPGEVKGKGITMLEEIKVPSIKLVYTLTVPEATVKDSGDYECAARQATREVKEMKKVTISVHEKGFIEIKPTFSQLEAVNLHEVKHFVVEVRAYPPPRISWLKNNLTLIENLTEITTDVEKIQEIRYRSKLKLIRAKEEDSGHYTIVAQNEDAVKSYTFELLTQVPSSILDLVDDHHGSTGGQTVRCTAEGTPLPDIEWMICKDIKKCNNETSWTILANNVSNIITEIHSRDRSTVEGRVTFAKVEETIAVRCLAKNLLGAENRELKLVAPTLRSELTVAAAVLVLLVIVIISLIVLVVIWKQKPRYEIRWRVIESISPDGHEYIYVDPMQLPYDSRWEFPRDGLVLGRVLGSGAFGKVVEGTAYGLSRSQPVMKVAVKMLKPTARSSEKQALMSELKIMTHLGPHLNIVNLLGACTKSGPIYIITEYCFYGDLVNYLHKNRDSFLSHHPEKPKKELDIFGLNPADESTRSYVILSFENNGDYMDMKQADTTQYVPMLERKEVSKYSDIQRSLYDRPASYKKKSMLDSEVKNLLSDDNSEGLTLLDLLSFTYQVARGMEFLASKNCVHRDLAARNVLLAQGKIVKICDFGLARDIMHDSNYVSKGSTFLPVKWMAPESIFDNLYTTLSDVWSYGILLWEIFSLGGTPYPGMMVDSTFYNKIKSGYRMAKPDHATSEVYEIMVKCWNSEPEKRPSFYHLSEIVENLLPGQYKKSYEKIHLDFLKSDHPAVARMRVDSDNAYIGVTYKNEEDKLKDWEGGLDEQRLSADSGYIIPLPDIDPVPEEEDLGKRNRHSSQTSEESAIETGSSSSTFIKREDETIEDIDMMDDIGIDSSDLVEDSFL
Histone deacetylase 1, sequence (Q13547 whole entry): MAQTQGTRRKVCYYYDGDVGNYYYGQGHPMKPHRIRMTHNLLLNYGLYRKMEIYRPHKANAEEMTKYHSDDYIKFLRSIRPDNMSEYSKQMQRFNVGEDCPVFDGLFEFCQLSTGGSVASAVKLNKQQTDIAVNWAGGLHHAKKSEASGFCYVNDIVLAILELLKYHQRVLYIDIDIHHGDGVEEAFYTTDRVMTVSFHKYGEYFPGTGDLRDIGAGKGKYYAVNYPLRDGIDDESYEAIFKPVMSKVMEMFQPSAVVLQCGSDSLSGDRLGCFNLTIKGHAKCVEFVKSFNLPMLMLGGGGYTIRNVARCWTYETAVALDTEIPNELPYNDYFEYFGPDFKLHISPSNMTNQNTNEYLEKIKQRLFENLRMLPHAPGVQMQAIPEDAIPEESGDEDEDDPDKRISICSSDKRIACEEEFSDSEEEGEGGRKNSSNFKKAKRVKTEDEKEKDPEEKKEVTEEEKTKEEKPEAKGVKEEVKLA
Histone deacetylase 4, sequence (P56524 whole entry): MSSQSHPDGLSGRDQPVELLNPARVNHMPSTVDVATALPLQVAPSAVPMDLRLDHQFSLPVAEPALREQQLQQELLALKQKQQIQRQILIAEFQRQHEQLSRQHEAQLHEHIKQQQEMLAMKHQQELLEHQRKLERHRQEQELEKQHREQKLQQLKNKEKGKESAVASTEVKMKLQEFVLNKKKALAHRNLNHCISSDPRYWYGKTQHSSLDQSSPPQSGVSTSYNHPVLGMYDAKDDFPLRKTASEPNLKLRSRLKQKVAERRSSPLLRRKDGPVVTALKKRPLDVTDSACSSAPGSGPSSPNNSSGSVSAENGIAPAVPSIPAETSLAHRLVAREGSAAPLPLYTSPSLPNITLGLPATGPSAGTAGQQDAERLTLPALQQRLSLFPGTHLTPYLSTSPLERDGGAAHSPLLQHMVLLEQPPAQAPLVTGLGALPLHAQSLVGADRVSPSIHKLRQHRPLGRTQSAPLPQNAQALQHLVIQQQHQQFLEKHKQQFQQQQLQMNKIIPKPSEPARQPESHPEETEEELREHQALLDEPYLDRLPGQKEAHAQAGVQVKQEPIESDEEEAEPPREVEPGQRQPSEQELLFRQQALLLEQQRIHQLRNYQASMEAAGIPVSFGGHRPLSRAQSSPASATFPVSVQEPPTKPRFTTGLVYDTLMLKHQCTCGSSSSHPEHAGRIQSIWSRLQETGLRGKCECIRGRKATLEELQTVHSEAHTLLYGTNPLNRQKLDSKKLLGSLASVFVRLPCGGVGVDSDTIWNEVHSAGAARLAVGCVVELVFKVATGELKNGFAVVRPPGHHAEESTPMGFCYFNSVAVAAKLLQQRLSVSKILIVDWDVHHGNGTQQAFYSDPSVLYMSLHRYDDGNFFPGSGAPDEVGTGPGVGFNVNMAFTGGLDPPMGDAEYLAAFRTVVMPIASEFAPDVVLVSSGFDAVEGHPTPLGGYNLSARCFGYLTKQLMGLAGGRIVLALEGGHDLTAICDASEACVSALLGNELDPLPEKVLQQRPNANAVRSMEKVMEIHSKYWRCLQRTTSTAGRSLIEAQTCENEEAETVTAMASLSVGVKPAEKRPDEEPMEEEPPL

**Q.** What does the source list for O=C(CCCCCCC(=O)Nc1ccc2c(c1)/C(=C/c1ccc[nH]1)C(=O)N2)NO?
**A.** IC50 [1]: 365 nM; IC50 [2]: 237 nM; IC50 [3]: 1190 nM; IC50 (Histone deacetylase 1): 6.87 pM; IC50 (Histone deacetylase 4): Not Active; IC50 [4]: 0.323 nM; IC50 (Histone deacetylase 9): Not Active; IC50 (MDA-MB-231 [5]): 29 µM; GI50 (K562): 251 nM; GI50 (MOLT-4): 302 nM; GI50 (RPMI-8226): 2920 nM; GI50 (A549): 2900 nM; GI50 (HOP-62): 381 nM; GI50 (NCI-H226): 2320 nM; GI50 (NCI-H23): 1320 nM; GI50 (NCI-H322M): 1020 nM; GI50 (NCI-H460): 2740 nM; GI50 (NCI-H522): 87 nM; GI50 (HCC 2998): 1640 nM; GI50 (HT-29): 612 nM; GI50 (KM12): 960 nM; GI50 (SW-620): 275 nM; GI50 (SF-295): 1310 nM; GI50 (SF-539): 605 nM; GI50 (SNB-75): 194 nM; GI50 (U-251): 420 nM; GI50 (Malme-3M): 86 nM; GI50 (SK-MEL-28): 406 nM; GI50 (IGROV-1): 167 nM; GI50 [6]: 4 µM; GI50 (SK-OV-3): 363 nM; GI50 (A498): 365 nM; GI50 (CAKI-1): 2330 nM; GI50 (RXF 393): 518 nM; GI50 (TK-10): 795 nM; GI50 (PC-3): 917 nM; GI50 (DU-145): 1020 nM; GI50 (MCF7): 440 nM; GI50 (MDA-MB-231 [7]): 1000 nM; GI50 [8]: 1020 nM
